# Source: patent US9681664B2, “Macrocyclic picolinamides as fungicides” (Dow Agrosciences LLC, priority 2012, dated 2017)
# Read-outs that look alike come from different tables or passages of the source.
# Columns and labels:
# Type in all cases: in vivo
# Uncinula necator = experiment: Grape powdery mildew (UNCINE) disease control; conditions: Erysiphe necator, 24 h, High volume application, 1 Day Protectant, read-out: UNCINE 1 DP disease control
# Protocol: Technical grades of materials were dissolved in acetone, which were then mixed with nine volumes of water containing 110 ppm Triton X-100. The fungicide solutions were applied onto wheat seedlings using an automated booth sprayer to run-off. All sprayed plants were allowed to air dry prior to further handling. All fungicides were evaluated using the aforementioned method for their activity vs. all target diseases. Wheat leaf blotch and brown rust activity were also evaluated using track spray applications, in which case the fungicides were formulated as EC formulations, containing 0.1% Trycol 5941 in the spray solutions. Grape seedlings (variety Carignane) were grown in soil-less Metro mix, with one plant per pot, and used in the test when approximately one month old. Plants were inoculated 24 hr after fungicide treatment by shaking spores from infected leaves over test plants. Plants were maintained in a greenhouse set at 20° C. until disease was fully developed. Fungicide formulation, application and disease assessment on the sprayed leaves followed the procedures as described in the Example A.
# [1] = tested on: Puccinia triticina; Synonym: Puccinia recondite f. sp. tritici; experiment: Wheat brown rust (PUCCRT) disease control on wheat seedlings; conditions: Puccinia triticina; for pest or weed control at 121.5 g/ha: low volume application, 121.5 g/H
# In short: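 Acetone solutions diluted in nine volumes of water with 110 ppm Triton X-100 sprayed to run-off on first-leaf Yuma wheat seedlings (track spray: EC with 0.1% Trycol 5941). Puccinia triticina spores inoculated before or after treatment; overnight dark dew at 22° C., 100% RH, then greenhouse at 24° C. for disease development.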
# Erysiphe cichoracearum = experiment: Powdery mildew of cucumber (ERYSCI) disease control; conditions: Golovinomyces cichoracearum, 24 h, 1 Day Protectant, high volume, read-out: Disease Control ERYSCI 1 DP
# Protocol: Technical grades of materials were dissolved in acetone, which were then mixed with nine volumes of water containing 110 ppm Triton X-100. The fungicide solutions were applied onto wheat seedlings using an automated booth sprayer to run-off. All sprayed plants were allowed to air dry prior to further handling. All fungicides were evaluated using the aforementioned method for their activity vs. all target diseases. Wheat leaf blotch and brown rust activity were also evaluated using track spray applications, in which case the fungicides were formulated as EC formulations, containing 0.1% Trycol 5941 in the spray solutions. Cucumber seedlings (variety Bush Pickle) were grown in soil-less Metro mix, with one plant per pot, and used in the test when 12 to 14 days old. Plants were inoculated with a spore suspension 24 hr following fungicide treatments. After inoculation the plants remained in the greenhouse set at 20° C. until disease was fully expressed. Fungicide formulation, application and disease assessment on the sprayed leaves followed the procedures as described in the Example A.
# [2] = tested on: Glomerella lagenarium; Anamorph: Colletotrichum lagenarium; experiment: Cucumber anthracnose (COLLLA) disease control; conditions: Colletotrichum orbiculare, 24 h, 1 Day Protectant, high volume, read-out: Disease Control COLLLA 1 DP
# Protocol: Technical grades of materials were dissolved in acetone, which were then mixed with nine volumes of water containing 110 ppm Triton X-100. The fungicide solutions were applied onto wheat seedlings using an automated booth sprayer to run-off. All sprayed plants were allowed to air dry prior to further handling. All fungicides were evaluated using the aforementioned method for their activity vs. all target diseases. Wheat leaf blotch and brown rust activity were also evaluated using track spray applications, in which case the fungicides were formulated as EC formulations, containing 0.1% Trycol 5941 in the spray solutions. Cucumber seedlings (variety Bush Pickle) were propagated in soil-less Metro mix, with each pot having one plant, and used in the test when 12 to 14 days old. Test plants were inoculated with an aqueous spore suspension of Colletotrichum lagenarium 24 hr after fungicide treatments. After inoculation the plants were kept in a dew room at 22° C. with 100% relative humidity for 48 hr to permit spores to germinate and infect the leaf. The plants were then transferred to a growth room set at 22° C. for disease to develop. Fungicide formulation, application and disease assessment on the sprayed leaves followed the procedures as described in the Example A.
# Venturia inaequalis = experiment: Apple scab (VENTIN) disease control; conditions: 24 h, High volume application, 1 Day Protectant, read-out: VENTIN 1 DP disease control
# Protocol: Technical grades of materials were dissolved in acetone, which were then mixed with nine volumes of water containing 110 ppm Triton X-100. The fungicide solutions were applied onto wheat seedlings using an automated booth sprayer to run-off. All sprayed plants were allowed to air dry prior to further handling. All fungicides were evaluated using the aforementioned method for their activity vs. all target diseases. Wheat leaf blotch and brown rust activity were also evaluated using track spray applications, in which case the fungicides were formulated as EC formulations, containing 0.1% Trycol 5941 in the spray solutions. Apple seedlings (variety McIntosh) were grown in soil-less Metro mix, with one plant per pot. Seedlings with two expanding young leaves at the top (older leaves at bottom of the plants were trimmed) were used in the test. Plants were inoculated with a spore suspension of Venturia inaequalis 24 hr after fungicide treatment and kept in a 22° C. dew chamber with 100% RH for 48 hr, and then moved to a greenhouse set at 20° C. for disease to develop. Fungicide formulation, application and disease assessment on the sprayed leaves followed the procedures as described in the Example A.
# [3] = 24 h, High volume application, 1 Day Protectant, read-out: PUCCRT 1DP disease control
# [4] = 72 h, High volume application, 3 Day Curative, read-out: PUCCRT 3DC disease control
# [5] = 24 h, Wheat Brown Rust, 1 Day Protectant, high volume application, read-out: Disease Control PUCCRT 1 DP 100 ppm
# [6] = 24 h, Wheat Brown Rust, 1 Day Protectant, read-out: Disease Control PUCCRT 1 DP 121.5 g/H
# [7] = 72 h, Wheat Brown Rust, 3 Day Curative, high volume application, read-out: Disease Control PUCCRT 3 DC 100 ppm
# [8] = 72 h, Wheat Brown Rust, 3 Day Curative, read-out: Disease Control PUCCRT 3 DC 121.5 g/H
Structure (SMILES),pest or weed control at 100 ppm (Uncinula necator) [%],"pest or weed control at 100 ppm [1, 3] [%]","pest or weed control at 100 ppm [1, 4] [%]",pest or weed control at 100 ppm (Erysiphe cichoracearum) [%],pest or weed control at 100 ppm [2] [%],pest or weed control at 100 ppm (Venturia inaequalis) [%],"pest or weed control at 100 ppm [1, 5] [%]","pest or weed control at 121.5 g/ha [1, 6] [%]","pest or weed control at 100 ppm [1, 7] [%]","pest or weed control at 121.5 g/ha [1, 8] [%]"
COc1ccnc(C(=O)N[C@H]2CCC[C@H](Oc3ccccc3)[C@@H](OCCCc3ccccc3)[C@H](C)OC2=O)c1OCOC(C)=O [F130],0 to 80,80 to 100,80 to 100,80 to 100,,,,,,
COCCC(=O)Oc1c(OC)ccnc1C(=O)N[C@H]1CCC[C@H](Oc2ccccc2)[C@@H](OCCCc2ccccc2)[C@H](C)OC1=O [F132],0 to 80,80 to 100,80 to 100,0 to 80,,,,,,
COc1ccnc(C(=O)N[C@H]2CCC[C@H](OCCCc3ccccc3)[C@@H](Oc3ccccc3)[C@H](C)OC2=O)c1OC(C)=O [F134],0 to 80,80 to 100,80 to 100,0 to 80,,,,,,
CCCO[C@H]1CCC[C@H](NC(=O)c2nccc(OC)c2OCOC(C)=O)C(=O)O[C@@H](C)[C@@H]1Oc1ccccc1 [F138],0 to 80,80 to 100,80 to 100,0 to 80,80 to 100,,,,,
CCCO[C@H]1CCC[C@H](NC(=O)c2nccc(OC)c2OCOC(=O)C(C)C)C(=O)O[C@@H](C)[C@@H]1Oc1ccccc1 [F139],0 to 80,80 to 100,80 to 100,0 to 80,80 to 100,,,,,
CCCO[C@H]1CCC[C@H](NC(=O)c2nccc(OC)c2OC(=O)CCOC)C(=O)O[C@@H](C)[C@@H]1Oc1ccccc1 [F140],0 to 80,80 to 100,80 to 100,< 0,80 to 100,,,,,
CCCO[C@H]1CCC[C@H](NC(=O)c2nccc(OC)c2OC(C)=O)C(=O)O[C@@H](C)[C@@H]1Oc1ccccc1 [F141],0 to 80,80 to 100,80 to 100,0 to 80,80 to 100,0 to 80,,,,
CCCO[C@H]1CCC[C@H](NC(=O)c2nccc(OC)c2OCOC(=O)C(C)C)C(=O)O[C@@H](C)[C@@H]1OC1CCCC1 [F154],0 to 80,80 to 100,80 to 100,80 to 100,80 to 100,,,,,
CCCO[C@H]1CCC[C@H](NC(=O)c2nccc(OC)c2OCOC(C)=O)C(=O)O[C@@H](C)[C@@H]1OC1CCCC1 [F155],0 to 80,80 to 100,80 to 100,80 to 100,80 to 100,,,,,
COc1ccnc(C(=O)N[C@H]2CCC[C@H](OC3CCCC3)[C@@H](OCCCc3ccccc3)[C@H](C)OC2=O)c1OCOC(C)=O [F165],0 to 80,80 to 100,80 to 100,0 to 80,,,,,,
CCCCCO[C@H]1[C@H](C)OC(=O)[C@@H](NC(=O)c2nccc(OC)c2OCOC(C)=O)CCC[C@@H]1OC1CCCC1 [F166],0 to 80,80 to 100,80 to 100,80 to 100,,,,,,
COc1ccc(O[C@H]2CCC[C@H](NC(=O)c3nccc(OC)c3OCOC(=O)C(C)C)C(=O)O[C@@H](C)[C@@H]2OC2CCCC2)cc1 [F169],0 to 80,80 to 100,80 to 100,80 to 100,,,,,,
COc1ccc(O[C@H]2CCC[C@H](NC(=O)c3nccc(OC)c3OCOC(C)=O)C(=O)O[C@@H](C)[C@@H]2OC2CCCC2)cc1 [F170],0 to 80,80 to 100,80 to 100,0 to 80,,,,,,
COc1ccnc(C(=O)N[C@H]2CCC[C@H](OCCCC(F)(F)F)[C@@H](OC3CCCC3)[C@H](C)OC2=O)c1OCOC(=O)C(C)C [F171],0 to 80,80 to 100,80 to 100,80 to 100,,,,,,
COc1ccnc(C(=O)N[C@H]2CCC[C@H](OCCCC(F)(F)F)[C@@H](OC3CCCC3)[C@H](C)OC2=O)c1OCOC(C)=O [F172],0 to 80,80 to 100,80 to 100,80 to 100,,,,,,
COc1ccnc(C(=O)N[C@H]2CCC[C@H](OCCCC(F)(F)F)[C@@H](OC3CCCC3)[C@H](C)OC2=O)c1OC(C)=O [F173],0 to 80,80 to 100,80 to 100,0 to 80,,,,,,
CCOCC(=O)OCOc1c(OC)ccnc1C(=O)N[C@H]1CCC[C@H](Oc2ccccc2)[C@@H](OC(=O)C2CCCC2)[C@H](C)OC1=O [F237],0 to 80,,,< 0,0 to 80,80 to 100,80 to 100,80 to 100,80 to 100,0 to 80
COc1ccnc(C(=O)N[C@H]2CCC[C@H](Oc3ccccc3)[C@@H](OC(=O)C3CC3)[C@H](C)OC2=O)c1OCOC(=O)C(C)C [F241],0 to 80,,,< 0,80 to 100,0 to 80,80 to 100,80 to 100,80 to 100,80 to 100
COc1ccnc(C(=O)N[C@H]2CCC[C@H](Oc3ccccc3)[C@@H](OC(=O)C3CC3)[C@H](C)OC2=O)c1OC(C)=O [F242],0 to 80,,,< 0,80 to 100,0 to 80,80 to 100,80 to 100,80 to 100,0 to 80
C=C(C)CO[C@H]1CCC[C@H](NC(=O)c2nccc(OC)c2OCOC(C)=O)C(=O)O[C@@H](C)[C@@H]1OC [F250],0 to 80,,,< 0,0 to 80,80 to 100,,0 to 80,,80 to 100
